Source: PubChem BioAssay (NCI)
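Exposure lasted 48 hours, with cells grown in 96-well plates and compounds tested at five concentrations. TGI denotes the concentration required for complete inhibition of growth.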

Columns and labels:
Assay in all cases: NCI-60 cell line screen, 48 h
[1] = system: OVCAR-4 ovarian
[2] = system: SK-MEL-28 melanoma
[3] = system: HCT-116 colon
[4] = system: T-47D breast
[5] = system: SK-OV-3 ovarian
[6] = system: HS 578T breast
[7] = system: IGROV1 ovarian
[8] = system: HOP-62 NSCLC
[9] = system: SW-620 colon
[10] = system: HT29 colon
[11] = system: SK-MEL-2 melanoma
[12] = system: SF-295 CNS
[13] = system: NCI-H23 lung
[14] = system: NCI/ADR-RES ovarian
[15] = system: KM12 colon
[16] = system: COLO 205 colon
[17] = system: SNB-19 CNS
[18] = system: A549 NSCLC
[19] = system: EKVX NSCLC
[20] = system: MCF7 breast
[21] = system: MOLT-4 leukemia
[22] = system: HCC-2998 colon
[23] = system: CCRF-CEM leukemia
[24] = system: TK-10 renal
[25] = system: M14 melanoma
[26] = system: SK-MEL-5 melanoma
[27] = system: UACC-257 melanoma
[28] = system: RXF 393 renal
[29] = system: OVCAR-8 ovarian
[30] = system: OVCAR-3 ovarian
[31] = system: SF-268 CNS
[32] = system: ACHN renal
[33] = system: SR leukemia
[34] = system: MALME-3M melanoma
[35] = system: U251 CNS
[36] = system: SN12C renal
[37] = system: HCT-15 colon
[38] = system: BT-549 breast
[39] = system: MDA-MB-435
[40] = system: NCI-H226 lung
[41] = system: MDA-N
[42] = system: SNB-75 CNS
[43] = system: RPMI-8226 leukemia
[44] = system: 786-0 renal
[45] = system: LOX IMVI melanoma
[46] = system: OVCAR-5 ovarian
[47] = system: NCI-H460 lung
[48] = system: CAKI-1 renal
[49] = system: UACC-62 melanoma
[50] = system: UO-31 renal
[51] = system: SF-539 CNS
[52] = system: DU-145 prostate
[53] = system: PC-3 prostate
[54] = system: A498 renal
[55] = system: NCI-H522 lung
[56] = system: HOP-92 NSCLC
[57] = system: MDA-MB-231 breast
[58] = system: K-562 leukemia
[59] = system: HL-60(TB) leukemia

Question: `C=C1C(=O)O[C@@H]2C[C@@]3(C)CCC[C@H](C)C3=C[C@H]12` (tested in a mixture with another compound) was tested. Which TGI [1] did it give?
Answer: Its TGI is 6.45 µM.

Question: And the TGI [2]?
Answer: Its TGI is 5.13 µM.

Question: What about the TGI [3] of the same compound?
Answer: The TGI was 2.93 µM.

Question: And the TGI [4]?
Answer: The TGI was 3.18 µM.

Question: What about the TGI [5] of the same compound?
Answer: Its TGI is 22.7 µM.

Question: And the TGI [6]?
Answer: The TGI was 17.3 µM.

Question: And the TGI [7]?
Answer: Its TGI is 7.71 µM.

Question: And the TGI [8]?
Answer: The TGI was 7.74 µM.

Question: What about the TGI [9] of the same compound?
Answer: The TGI was 3.97 µM.

Question: And the TGI [10]?
Answer: The TGI was 5.34 µM.

Question: And the TGI [11]?
Answer: The TGI was 5.41 µM.

Question: What about the TGI [12] of the same compound?
Answer: Its TGI is 24.6 µM.

Question: And the TGI [13]?
Answer: The TGI was 5.67 µM.

Question: What about the TGI [14] of the same compound?
Answer: The TGI was 5.2 µM.

Question: What about the TGI [15] of the same compound?
Answer: The TGI was 8.89 µM.

Question: What about the TGI [16] of the same compound?
Answer: Its TGI is 3.18 µM.

Question: What about the TGI [17] of the same compound?
Answer: Its TGI is 22.4 µM.

Question: And the TGI [18]?
Answer: The TGI was 18.6 µM.

Question: What about the TGI [19] of the same compound?
Answer: Its TGI is 15 µM.

Question: What about the TGI [20] of the same compound?
Answer: The TGI was 10.7 µM.

Question: And the TGI [21]?
Answer: Its TGI is 3.73 µM.

Question: What about the TGI [22] of the same compound?
Answer: Its TGI is 15.5 µM.

Question: And the TGI [23]?
Answer: The TGI was greater than 100 µM.

Question: And the TGI [24]?
Answer: Its TGI is 6.92 µM.

Question: What about the TGI [25] of the same compound?
Answer: The TGI was 2.75 µM.

Question: What about the TGI [26] of the same compound?
Answer: Its TGI is 3.9 µM.

Question: And the TGI [27]?
Answer: Its TGI is 3.75 µM.

Question: And the TGI [28]?
Answer: Its TGI is 4.07 µM.

Question: And the TGI [29]?
Answer: Its TGI is 3.13 µM.

Question: And the TGI [30]?
Answer: Its TGI is 3.44 µM.

Question: And the TGI [31]?
Answer: Its TGI is 7.2 µM.

Question: What about the TGI [32] of the same compound?
Answer: Its TGI is 6.98 µM.

Question: And the TGI [33]?
Answer: Its TGI is 3.26 µM.

Question: And the TGI [34]?
Answer: The TGI was 2.42 µM.

Question: What about the TGI [35] of the same compound?
Answer: Its TGI is 9.93 µM.

Question: What about the TGI [36] of the same compound?
Answer: Its TGI is 3.44 µM.

Question: What about the TGI [37] of the same compound?
Answer: The TGI was 4.39 µM.

Question: And the TGI [38]?
Answer: The TGI was 3.31 µM.

Question: And the TGI [39]?
Answer: Its TGI is 3.72 µM.

Question: What about the TGI [40] of the same compound?
Answer: Its TGI is 16.6 µM.

Question: What about the TGI [41] of the same compound?
Answer: Its TGI is 7.08 µM.

Question: And the TGI [42]?
Answer: The TGI was 5.6 µM.

Question: And the TGI [43]?
Answer: The TGI was 4.05 µM.

Question: What about the TGI [44] of the same compound?
Answer: Its TGI is 2.83 µM.

Question: What about the TGI [45] of the same compound?
Answer: The TGI was 11.7 µM.

Question: And the TGI [46]?
Answer: Its TGI is 15.8 µM.

Question: And the TGI [47]?
Answer: Its TGI is 14.3 µM.

Question: What about the TGI [48] of the same compound?
Answer: Its TGI is 3.57 µM.

Question: And the TGI [49]?
Answer: The TGI was 6.94 µM.

Question: What about the TGI [50] of the same compound?
Answer: Its TGI is 3.57 µM.

Question: And the TGI [51]?
Answer: The TGI was 4.85 µM.

Question: And the TGI [52]?
Answer: Its TGI is 8.67 µM.

Question: What about the TGI [53] of the same compound?
Answer: The TGI was 10 µM.

Question: And the TGI [54]?
Answer: Its TGI is 3.58 µM.

Question: What about the TGI [55] of the same compound?
Answer: Its TGI is 2.94 µM.

Question: And the TGI [56]?
Answer: Its TGI is 3.48 µM.

Question: And the TGI [57]?
Answer: Its TGI is 6.72 µM.

Question: `CCCCCCCCCCCCCOCCOCCOCCCCC(O)CCCCCCCCCC1=C[C@H](C)OC1=O` (some centres not stated) was tested. Which TGI [1] did it give?
Answer: The TGI was 71.9 µM.

Question: What about the TGI [2] of the same compound?
Answer: The TGI was 31.5 µM.

Question: And the TGI [3]?
Answer: Its TGI is 33.4 µM.

Question: What about the TGI [4] of the same compound?
Answer: The TGI was greater than 100 µM.

Question: What about the TGI [5] of the same compound?
Answer: The TGI was greater than 100 µM.

Question: And the TGI [6]?
Answer: Its TGI is 47.6 µM.

Question: What about the TGI [7] of the same compound?
Answer: The TGI was 37.6 µM.

Question: And the TGI [8]?
Answer: Its TGI is greater than 100 µM.

Question: And the TGI [9]?
Answer: Its TGI is 76.9 µM.

Question: What about the TGI [10] of the same compound?
Answer: Its TGI is 57.6 µM.

Question: And the TGI [11]?
Answer: Its TGI is 63 µM.

Question: What about the TGI [12] of the same compound?
Answer: Its TGI is 29.2 µM.

Question: And the TGI [13]?
Answer: The TGI was 60 µM.

Question: What about the TGI [14] of the same compound?
Answer: The TGI was 41.4 µM.

Question: And the TGI [15]?
Answer: Its TGI is greater than 100 µM.

Question: And the TGI [16]?
Answer: The TGI was 52.3 µM.

Question: What about the TGI [17] of the same compound?
Answer: Its TGI is 43.7 µM.

Question: What about the TGI [18] of the same compound?
Answer: The TGI was 36.9 µM.

Question: What about the TGI [20] of the same compound?
Answer: The TGI was greater than 100 µM.

Question: And the TGI [21]?
Answer: The TGI was 37.2 µM.

Question: And the TGI [22]?
Answer: Its TGI is 74.4 µM.

Question: What about the TGI [23] of the same compound?
Answer: Its TGI is greater than 100 µM.

Question: What about the TGI [24] of the same compound?
Answer: The TGI was 22.5 µM.

Question: What about the TGI [25] of the same compound?
Answer: Its TGI is greater than 100 µM.

Question: What about the TGI [26] of the same compound?
Answer: The TGI was 30.2 µM.

Question: What about the TGI [27] of the same compound?
Answer: Its TGI is 37.7 µM.

Question: What about the TGI [28] of the same compound?
Answer: The TGI was 47.5 µM.

Question: And the TGI [29]?
Answer: The TGI was greater than 100 µM.

Question: And the TGI [30]?
Answer: Its TGI is 44.2 µM.

Question: And the TGI [31]?
Answer: The TGI was 82.2 µM.

Question: What about the TGI [32] of the same compound?
Answer: Its TGI is greater than 100 µM.

Question: And the TGI [33]?
Answer: The TGI was 34.2 µM.

Question: What about the TGI [35] of the same compound?
Answer: Its TGI is 42.2 µM.

Question: And the TGI [36]?
Answer: Its TGI is 71.4 µM.

Question: And the TGI [58]?
Answer: Its TGI is greater than 100 µM.

Question: What about the TGI [37] of the same compound?
Answer: The TGI was 48 µM.

Question: What about the TGI [38] of the same compound?
Answer: The TGI was 27.9 µM.

Question: What about the TGI [39] of the same compound?
Answer: The TGI was 57.1 µM.

Question: What about the TGI [40] of the same compound?
Answer: Its TGI is 38 µM.

Question: And the TGI [41]?
Answer: Its TGI is 45.3 µM.

Question: What about the TGI [42] of the same compound?
Answer: Its TGI is greater than 100 µM.

Question: And the TGI [43]?
Answer: The TGI was 35.9 µM.

Question: And the TGI [44]?
Answer: The TGI was 49.2 µM.

Question: And the TGI [45]?
Answer: The TGI was 42.6 µM.

Question: And the TGI [46]?
Answer: The TGI was 78.7 µM.

Question: What about the TGI [47] of the same compound?
Answer: Its TGI is greater than 100 µM.

Question: And the TGI [48]?
Answer: Its TGI is 44.4 µM.

Question: What about the TGI [49] of the same compound?
Answer: The TGI was 54 µM.

Question: And the TGI [50]?
Answer: The TGI was 44.4 µM.

Question: What about the TGI [51] of the same compound?
Answer: The TGI was 45.3 µM.

Question: What about the TGI [59] of the same compound?
Answer: The TGI was 16 µM.

Question: And the TGI [52]?
Answer: The TGI was 66.3 µM.

Question: What about the TGI [53] of the same compound?
Answer: Its TGI is 71.7 µM.

Question: And the TGI [55]?
Answer: Its TGI is 16.7 µM.

Question: What about the TGI [57] of the same compound?
Answer: The TGI was 50.5 µM.
